Test results taken from the NIST ThermoML archive (doi:10.1016/j.fluid.2009.09.013).
± gives the expanded uncertainty stated by the source.

Legend:
[1] = Crystal; DTA
[2] = Molar enthalpy of transition or fusion; settings: Metastable crystal; DSC

Normal melting temperature [1]: 112.60 ± 0.5 °C
Molar enthalpy of transition or fusion [2]: 15.8 ± 0.43 kcal/mol
Compound: CC(C)(C)c1cc(CCC(=O)OCC(COC(=O)CCc2cc(C(C)(C)C)c(O)c(C(C)(C)C)c2)(COC(=O)CCc2cc(C(C)(C)C)c(O)c(C(C)(C)C)c2)COC(=O)CCc2cc(C(C)(C)C)c(O)c(C(C)(C)C)c2)cc(C(C)(C)C)c1O
